According to US20040152904A1, “Delta1 pyrrolines” (priority 2001, published 2004):

Columns and labels:
[1] = system: Lucilia cuprina larvae; assay: Blowfly larvae test / development-inhibitory action; assay type: in vivo; settings: 100 ppm active compound
Experimental: Blowfly Larvae Test/Development-Inhibitory Action Test animals: Lucilia cuprina larvae Solvent: Dimethyl sulphoxide 20 mg of active compound are dissolved in 1 ml of dimethyl sulphoxide, more dilute concentrations are prepared by dilution with distilled water. About 20 Lucilia cuprina larvae are introduced into a test tube which contains about 1 cm^3 of horse meat and 0.5 ml of the preparation of active compound to be tested. The efficacy of the preparation of active compound is determined after 24 and 48 hours. The test tubes are transferred into beakers whose bottom is covered with sand. After a further 2 days, the test tubes are removed and the pupae are counted. The activity of the preparation of active compound is assessed by the number of flies that have hatched after 1.5 times the development time of an untreated control. 100% means that no flies have hatched; 0% means that all flies have hatched normally.

[2] = system: caterpillars of the diamond-back moth (Plutella xylostella); assay: Plutella test; assay type: in vivo; settings: 40 ppm active compound, cabbage leaves dipped
Experimental: Plutella Test Solvent: 30 parts by weight of dimethylformamide Emulsifier: 1 part by weight of alkylaryl polyglycol ether To produce a suitable preparation of active compound, 1 part by weight of active compound is mixed with the stated amounts of solvent and emulsifier, and the concentrate is diluted with emulsifier-containing water to the desired concentration. Cabbage leaves (Brassica oleracea) are treated by being dipped into the preparation of active compound of the desired concentration and are populated with caterpillars of the diamond-back moth (Plutella xylostella) whilst the leaves are still moist. After the desired period of time, the kill in % is determined. 100% means that all caterpillars have been killed; 0% means that none of the caterpillars have been killed.

SMILES | Kill rate in % after 48h [1] | Kill rate in % after 6d [2]
CCn1nnc(-c2ccc(-c3ccc(C4CCC(c5c(F)cccc5F)=N4)cc3)cc2)n1 (stereo not drawn) [drawing 71] | 100% | 
CCOCn1nnc(-c2ccc(-c3ccc(C4CCC(c5c(F)cccc5F)=N4)cc3)cc2)n1 (stereo not drawn) [drawing 72] | 70% | 
CC(C)(C)n1nnc(-c2ccc(-c3ccc(C4CCC(c5c(F)cccc5F)=N4)cc3)cc2)n1 (stereo not drawn) [drawing 60] |  | 100%
